Test results as given in BindingDB's records for doi:10.1021/jm00116a002 (Abbott Laboratories, 1992).

Target: Gastrin/cholecystokinin type B receptor (Cavia porcellus)
Assay: The compound was tested for the inhibition of [125I]-Bolton-Hunter CCK-8 binding to cholecystokinin type B receptor in guinea pig cerebral cortical

Structure (SMILES)	IC50 [µM]
CCCCCN(CCCCC)C(=O)[C@@H](Cc1c[nH]c2ccccc12)NC(=O)c1ccc2cccc(O)c2n1	> 10
CCCCCN(CCCCC)C(=O)[C@H](Cc1c[nH]c2ccccc12)NC(=O)c1ccc(Cl)c(Cl)c1	> 10
CCCCCN(CCCCC)C(=O)[C@@H](Cc1c[nH]c2ccccc12)NC(=O)c1ccc(Cl)c(Cl)c1	> 10
CCCCCN(CCCCC)C(=O)[C@@H](Cc1c[nH]c2ccccc12)NC(=O)c1c[nH]c2ccccc12	20
CCCCCN(CCCCC)C(=O)[C@@H](Cc1c[nH]c2ccccc12)NC(=O)c1cccc2ccccc12	9.7
CCCCCN(CCCCC)C(=O)[C@@H](CC1C(=O)Nc2ccccc21)NC(=O)c1cnc2ccccc2c1 (some centres not stated)	4.1

Further lines, results first:

IC50 [µM]	Structure (SMILES)
10	CN(Cc1ccccc1)C(=O)[C@@H](Cc1c[nH]c2ccccc12)NC(=O)c1cnc2ccccc2c1
11	CCCCCN(CCCCC)C(=O)[C@@H](Cc1c[nH]c2ccccc12)NC(=O)c1ccc2ccccc2c1
> 10	C[C@H](NC(=O)[C@@H](Cc1c[nH]c2ccccc12)NC(=O)c1cnc2ccccc2c1)c1ccccc1
9.2	CCOC(=O)CN(Cc1ccccc1)C(=O)[C@@H](Cc1c[nH]c2ccccc12)NC(=O)c1cnc2ccccc2c1

Target: Gastrin/cholecystokinin type B receptor (Cavia porcellus)
Assay: The compound was tested for the inhibition of [125I]-Bolton-Hunter CCK-8 binding to cholecystokinin type B receptor in guinea pig cerebral cortical; Not determined

IC50 [µM]	Structure (SMILES)
> 10	CCCCCN(CCCCC)C(=O)[C@@H](Cc1c(Sc2ccccc2[N+](=O)[O-])[nH]c2ccccc12)NC(=O)c1cnc2ccccc2c1
> 10	CCCCCN(CCCCC)C(=O)[C@@H](Cc1c[nH]c2ccccc12)NC(=O)/C=C/c1cccnc1
